Experimental data reported in PMC9719519, “Non-classical ferroptosis inhibition by a small molecule targeting PHB2” (Nature Communications, 2022).

What was measured:
Assay in all cases: biochemical
Set-up in all cases: Eurofins recombinant human kinase profiling, remaining kinase activity as % of control, 10 uM ATP
Settings in all cases: ATP 10 uM; read-out: %Ctrl@10 μM
BMPR2(h) = BMPR2(h) (Homo sapiens, UniProt Q13873)
Outline: (§1)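 Activity measured in a commercial panel of 401 recombinant human protein kinases run as a kinase profiling service.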

ICK(h) = target: T1, ICK(h) (Homo sapiens, UniProt Q9UPZ9)
T1 construct: gene CILK1
Outline: as §1

EGFR(L858R)(h) = EGFR(L858R)(h) (Homo sapiens, UniProt P00533, L858R)
Outline: as §1

MEKK2(h) = target: T2, MEKK2(h) (Homo sapiens, UniProt Q9Y2U5)
T2 construct: gene MAP3K2
Outline: as §1

PKD2(h) = target: T3, PKD2(h) (Homo sapiens, UniProt Q9BZL6)
T3 construct: gene PRKD2
T3 sequence (Q9BZL6 whole entry): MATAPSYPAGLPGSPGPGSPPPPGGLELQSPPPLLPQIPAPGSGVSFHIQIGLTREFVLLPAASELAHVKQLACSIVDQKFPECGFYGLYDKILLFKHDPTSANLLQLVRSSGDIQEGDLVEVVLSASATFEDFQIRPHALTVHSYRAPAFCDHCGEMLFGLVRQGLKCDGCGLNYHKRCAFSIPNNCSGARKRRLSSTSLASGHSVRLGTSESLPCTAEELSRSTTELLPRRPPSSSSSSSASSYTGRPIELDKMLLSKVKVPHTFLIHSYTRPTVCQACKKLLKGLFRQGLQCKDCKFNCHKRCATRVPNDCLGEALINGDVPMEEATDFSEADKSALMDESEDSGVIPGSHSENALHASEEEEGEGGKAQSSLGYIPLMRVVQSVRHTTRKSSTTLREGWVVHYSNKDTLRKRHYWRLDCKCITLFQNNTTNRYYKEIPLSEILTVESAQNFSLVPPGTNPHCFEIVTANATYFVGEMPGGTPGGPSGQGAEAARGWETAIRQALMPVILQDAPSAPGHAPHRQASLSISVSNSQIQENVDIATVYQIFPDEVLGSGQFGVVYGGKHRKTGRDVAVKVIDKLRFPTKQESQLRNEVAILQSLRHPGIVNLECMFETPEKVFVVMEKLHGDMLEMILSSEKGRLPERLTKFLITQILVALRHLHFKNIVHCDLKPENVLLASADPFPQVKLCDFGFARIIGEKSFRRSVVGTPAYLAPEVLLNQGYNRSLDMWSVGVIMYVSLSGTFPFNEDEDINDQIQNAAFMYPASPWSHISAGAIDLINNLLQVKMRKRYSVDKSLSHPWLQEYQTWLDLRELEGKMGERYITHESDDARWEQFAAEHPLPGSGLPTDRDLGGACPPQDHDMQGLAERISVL
Outline: as §1

CHK2(I157T)(h) = target: T4, CHK2(I157T)(h) (Homo sapiens, UniProt O96017, I157T)
T4 construct: gene CHEK2
Outline: as §1

EphA7(h) = EphA7(h) (Homo sapiens, UniProt Q15375)
Outline: as §1

MARK4(h) = MARK4(h) (Homo sapiens, UniProt Q96L34)
Chain of MARK4(h) (Q96L34 whole entry): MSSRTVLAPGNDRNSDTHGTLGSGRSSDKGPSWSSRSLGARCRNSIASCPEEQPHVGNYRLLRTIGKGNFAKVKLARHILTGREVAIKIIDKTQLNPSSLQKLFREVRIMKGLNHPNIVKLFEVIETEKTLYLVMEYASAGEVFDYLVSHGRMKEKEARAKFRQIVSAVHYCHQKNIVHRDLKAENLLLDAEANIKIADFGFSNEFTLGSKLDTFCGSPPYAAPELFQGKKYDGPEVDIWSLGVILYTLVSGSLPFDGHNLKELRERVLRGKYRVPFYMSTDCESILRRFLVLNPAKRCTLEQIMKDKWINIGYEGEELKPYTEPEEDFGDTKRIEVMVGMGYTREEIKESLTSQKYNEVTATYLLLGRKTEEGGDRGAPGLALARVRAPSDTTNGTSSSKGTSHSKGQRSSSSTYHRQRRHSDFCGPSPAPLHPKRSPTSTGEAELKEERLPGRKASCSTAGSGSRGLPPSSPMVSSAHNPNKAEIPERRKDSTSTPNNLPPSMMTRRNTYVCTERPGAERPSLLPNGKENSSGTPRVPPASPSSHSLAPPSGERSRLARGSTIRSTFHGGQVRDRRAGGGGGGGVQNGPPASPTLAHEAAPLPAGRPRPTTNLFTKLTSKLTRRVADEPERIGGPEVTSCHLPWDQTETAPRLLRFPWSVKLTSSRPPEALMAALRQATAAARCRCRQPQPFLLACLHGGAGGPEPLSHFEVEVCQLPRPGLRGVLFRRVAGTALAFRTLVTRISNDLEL
Outline: as §1

PKA(h) = target: T5, PKA(h) (Homo sapiens, UniProt P17612)
T5 construct: gene PRKACA
Outline: as §1

SAPK4(h) = target: T6, SAPK4(h) (Homo sapiens, UniProt O15264)
T6 construct: gene MAPK13
Outline: as §1

FGFR3(h) = FGFR3(h) (Homo sapiens, UniProt P22607)
Outline: as §1

Ron(h) = target: T7, Ron(h) (Homo sapiens, UniProt Q04912)
T7 construct: gene MST1R
Outline: as §1

JNK3(h) = target: T8, JNK3(h) (Homo sapiens, UniProt P53779)
T8 construct: gene MAPK10
T8 sequence (P53779 whole entry): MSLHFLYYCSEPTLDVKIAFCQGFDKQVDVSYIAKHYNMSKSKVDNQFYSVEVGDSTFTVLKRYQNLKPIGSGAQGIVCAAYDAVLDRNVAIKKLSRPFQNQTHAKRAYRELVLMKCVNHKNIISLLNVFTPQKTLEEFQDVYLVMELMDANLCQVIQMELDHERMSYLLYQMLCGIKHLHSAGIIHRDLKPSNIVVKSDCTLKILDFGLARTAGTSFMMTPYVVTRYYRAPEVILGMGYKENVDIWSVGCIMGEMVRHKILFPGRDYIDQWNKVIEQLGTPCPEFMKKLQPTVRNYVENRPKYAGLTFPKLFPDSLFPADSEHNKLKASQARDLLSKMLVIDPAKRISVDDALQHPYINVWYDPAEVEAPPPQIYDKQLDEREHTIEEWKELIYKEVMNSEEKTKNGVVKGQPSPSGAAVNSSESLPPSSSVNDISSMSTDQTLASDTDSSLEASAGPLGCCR
Outline: as §1

ALK(h) = ALK(h) (Homo sapiens, UniProt Q9UM73)
Outline: as §1

PhKγ2(h) = target: T9, PhKγ2(h) (Homo sapiens, UniProt P15735)
T9 construct: gene PHKG2
T9 sequence (P15735 whole entry): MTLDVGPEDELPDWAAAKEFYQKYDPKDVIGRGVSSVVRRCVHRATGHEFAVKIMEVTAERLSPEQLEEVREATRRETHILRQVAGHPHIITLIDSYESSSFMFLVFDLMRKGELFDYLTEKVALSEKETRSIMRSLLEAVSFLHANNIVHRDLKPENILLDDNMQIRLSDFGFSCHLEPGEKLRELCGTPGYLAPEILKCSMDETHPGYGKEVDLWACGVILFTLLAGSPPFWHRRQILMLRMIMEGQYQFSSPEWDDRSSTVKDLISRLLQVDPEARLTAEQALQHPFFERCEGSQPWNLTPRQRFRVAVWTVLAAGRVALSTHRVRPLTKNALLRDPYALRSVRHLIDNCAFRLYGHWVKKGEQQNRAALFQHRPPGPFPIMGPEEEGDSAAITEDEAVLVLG
Outline: as §1

PAK4(h) = PAK4(h) (Homo sapiens, UniProt O96013)
Outline: as §1

WNK3(h) = WNK3(h) (Homo sapiens, UniProt Q9BYP7)
Outline: as §1

EphA5(h) = EphA5(h) (Homo sapiens, UniProt P54756)
Chain of EphA5(h) (P54756 whole entry): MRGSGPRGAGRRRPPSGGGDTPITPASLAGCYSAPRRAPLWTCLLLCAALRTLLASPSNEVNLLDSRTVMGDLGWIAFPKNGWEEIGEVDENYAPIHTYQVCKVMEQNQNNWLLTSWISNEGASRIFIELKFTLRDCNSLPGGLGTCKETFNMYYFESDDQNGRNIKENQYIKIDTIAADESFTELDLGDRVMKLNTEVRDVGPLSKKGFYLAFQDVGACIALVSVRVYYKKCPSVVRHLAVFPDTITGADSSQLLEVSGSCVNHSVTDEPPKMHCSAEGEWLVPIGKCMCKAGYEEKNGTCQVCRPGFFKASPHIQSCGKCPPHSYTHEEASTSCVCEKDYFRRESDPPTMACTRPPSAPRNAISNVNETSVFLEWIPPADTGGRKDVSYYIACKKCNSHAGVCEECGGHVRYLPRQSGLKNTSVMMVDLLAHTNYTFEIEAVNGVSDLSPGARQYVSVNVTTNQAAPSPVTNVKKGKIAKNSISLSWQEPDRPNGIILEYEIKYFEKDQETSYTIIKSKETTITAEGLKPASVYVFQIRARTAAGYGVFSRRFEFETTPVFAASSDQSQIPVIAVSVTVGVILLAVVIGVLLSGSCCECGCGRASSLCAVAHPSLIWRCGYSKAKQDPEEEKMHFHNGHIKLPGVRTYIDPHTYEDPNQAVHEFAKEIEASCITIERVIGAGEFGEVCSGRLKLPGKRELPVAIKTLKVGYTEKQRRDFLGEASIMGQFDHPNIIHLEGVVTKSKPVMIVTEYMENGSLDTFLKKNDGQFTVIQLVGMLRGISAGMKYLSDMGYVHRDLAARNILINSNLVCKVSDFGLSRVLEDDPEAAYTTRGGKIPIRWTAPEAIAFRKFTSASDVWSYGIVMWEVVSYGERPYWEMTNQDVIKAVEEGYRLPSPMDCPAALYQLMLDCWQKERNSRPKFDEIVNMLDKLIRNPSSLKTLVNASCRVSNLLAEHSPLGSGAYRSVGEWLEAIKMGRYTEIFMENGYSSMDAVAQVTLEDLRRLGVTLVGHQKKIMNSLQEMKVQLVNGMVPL
Outline: as §1

ROCK-II(h) = target: T10, ROCK-II(h) (Homo sapiens, UniProt O75116)
T10 construct: gene ROCK2
T10 sequence (O75116 whole entry): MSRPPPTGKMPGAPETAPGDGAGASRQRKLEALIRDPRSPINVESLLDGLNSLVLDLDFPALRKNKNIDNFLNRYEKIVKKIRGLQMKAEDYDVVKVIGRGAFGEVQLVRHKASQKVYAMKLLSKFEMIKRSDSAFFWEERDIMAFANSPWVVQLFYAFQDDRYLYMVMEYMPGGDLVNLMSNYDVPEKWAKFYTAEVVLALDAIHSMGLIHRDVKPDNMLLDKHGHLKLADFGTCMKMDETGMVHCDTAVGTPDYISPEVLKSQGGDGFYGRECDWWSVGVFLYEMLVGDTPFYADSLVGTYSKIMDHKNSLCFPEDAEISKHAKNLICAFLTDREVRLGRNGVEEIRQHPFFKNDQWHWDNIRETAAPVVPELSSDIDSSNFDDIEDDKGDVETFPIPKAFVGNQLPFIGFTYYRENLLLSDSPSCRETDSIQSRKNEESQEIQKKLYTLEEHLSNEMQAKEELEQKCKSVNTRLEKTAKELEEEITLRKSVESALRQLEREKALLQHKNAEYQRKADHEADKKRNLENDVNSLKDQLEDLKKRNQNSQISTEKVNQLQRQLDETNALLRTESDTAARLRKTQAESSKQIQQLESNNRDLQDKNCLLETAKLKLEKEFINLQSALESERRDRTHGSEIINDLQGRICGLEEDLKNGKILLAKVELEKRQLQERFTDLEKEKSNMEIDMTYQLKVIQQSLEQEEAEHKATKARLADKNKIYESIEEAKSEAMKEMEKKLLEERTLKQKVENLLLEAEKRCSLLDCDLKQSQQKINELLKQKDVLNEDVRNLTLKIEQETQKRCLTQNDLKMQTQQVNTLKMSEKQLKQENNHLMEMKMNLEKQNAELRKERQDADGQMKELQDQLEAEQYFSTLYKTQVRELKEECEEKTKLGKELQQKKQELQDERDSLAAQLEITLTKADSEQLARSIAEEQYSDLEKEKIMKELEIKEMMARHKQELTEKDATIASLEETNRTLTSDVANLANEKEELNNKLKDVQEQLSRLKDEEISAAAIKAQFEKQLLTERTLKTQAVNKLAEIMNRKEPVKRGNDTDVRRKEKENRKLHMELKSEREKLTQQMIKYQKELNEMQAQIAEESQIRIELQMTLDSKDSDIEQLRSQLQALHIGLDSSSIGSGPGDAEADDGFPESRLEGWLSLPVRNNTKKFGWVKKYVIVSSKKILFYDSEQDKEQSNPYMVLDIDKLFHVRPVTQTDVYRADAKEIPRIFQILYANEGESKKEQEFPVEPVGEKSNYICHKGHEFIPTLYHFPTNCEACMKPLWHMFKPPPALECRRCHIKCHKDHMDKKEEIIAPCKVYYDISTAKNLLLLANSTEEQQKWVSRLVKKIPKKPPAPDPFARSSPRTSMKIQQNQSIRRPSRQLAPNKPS
Outline: as §1

DRAK2(h) = target: T11, DRAK2(h) (Homo sapiens, UniProt O94768)
T11 construct: gene STK17B
Outline: as §1

VRK2(h) = VRK2(h) (Homo sapiens, UniProt Q86Y07)
Outline: as §1

FGFR2(N549H)(h) = FGFR2(N549H)(h) (Homo sapiens, UniProt P21802, N549H)
Outline: as §1

IR(h), activated = target: T12, IR(h), activated (Homo sapiens, UniProt P06213)
T12 construct: gene INSR
Outline: as §1

With `C1=C(c2nc(-c3cnn(C4CCNCC4)c3)cn3cc(-c4ccccc4)nc23)CCOC1` [YL-939] as the compound, how does the remaining activity at 10 µM (BMPR2(h)) read?
Its remaining activity at 10 µM is 99%.

What about the remaining activity at 10 µM (ICK(h)) of the same compound?
The remaining activity at 10 µM was 92%.

What about the remaining activity at 10 µM (EGFR(L858R)(h)) of the same compound?
The remaining activity at 10 µM was 86%.

What about the remaining activity at 10 µM (MEKK2(h)) of the same compound?
The remaining activity at 10 µM was 100%.

What about the remaining activity at 10 µM (PKD2(h)) of the same compound?
Its remaining activity at 10 µM is 89%.

And the remaining activity at 10 µM (CHK2(I157T)(h))?
Its remaining activity at 10 µM is 87%.

And the remaining activity at 10 µM (EphA7(h))?
Its remaining activity at 10 µM is 99%.

And the remaining activity at 10 µM (MARK4(h))?
Its remaining activity at 10 µM is 111%.

And the remaining activity at 10 µM (PKA(h))?
The remaining activity at 10 µM was 98%.

What about the remaining activity at 10 µM (SAPK4(h)) of the same compound?
Its remaining activity at 10 µM is 100%.

What about the remaining activity at 10 µM (FGFR3(h)) of the same compound?
Its remaining activity at 10 µM is 83%.

What about the remaining activity at 10 µM (Ron(h)) of the same compound?
Its remaining activity at 10 µM is 99%.

And the remaining activity at 10 µM (JNK3(h))?
The remaining activity at 10 µM was 65%.

What about the remaining activity at 10 µM (ALK(h)) of the same compound?
The remaining activity at 10 µM was 106%.

What about the remaining activity at 10 µM (PhKγ2(h)) of the same compound?
The remaining activity at 10 µM was 68%.

And the remaining activity at 10 µM (PAK4(h))?
The remaining activity at 10 µM was 97%.

And the remaining activity at 10 µM (WNK3(h))?
The remaining activity at 10 µM was 87%.

And the remaining activity at 10 µM (EphA5(h))?
Its remaining activity at 10 µM is 96%.

And the remaining activity at 10 µM (ROCK-II(h))?
The remaining activity at 10 µM was 89%.

What about the remaining activity at 10 µM (DRAK2(h)) of the same compound?
The remaining activity at 10 µM was 128%.

And the remaining activity at 10 µM (VRK2(h))?
Its remaining activity at 10 µM is 92%.

And the remaining activity at 10 µM (FGFR2(N549H)(h))?
Its remaining activity at 10 µM is 94%.

What about the remaining activity at 10 µM (IR(h), activated) of the same compound?
Its remaining activity at 10 µM is 91%.
